Experiment [1] deals with T1, Cls (Homo sapiens, UniProt P09871).
T1 sequence (P09871 438-688 limits assumed): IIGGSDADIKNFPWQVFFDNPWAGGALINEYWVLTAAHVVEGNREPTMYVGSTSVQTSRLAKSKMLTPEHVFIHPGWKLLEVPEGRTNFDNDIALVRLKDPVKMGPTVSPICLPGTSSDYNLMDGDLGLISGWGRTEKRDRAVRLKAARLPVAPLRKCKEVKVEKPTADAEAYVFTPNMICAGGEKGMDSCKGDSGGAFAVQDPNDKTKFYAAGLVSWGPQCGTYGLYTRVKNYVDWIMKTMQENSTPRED
T1 sequence (P09871 16-437 limits assumed): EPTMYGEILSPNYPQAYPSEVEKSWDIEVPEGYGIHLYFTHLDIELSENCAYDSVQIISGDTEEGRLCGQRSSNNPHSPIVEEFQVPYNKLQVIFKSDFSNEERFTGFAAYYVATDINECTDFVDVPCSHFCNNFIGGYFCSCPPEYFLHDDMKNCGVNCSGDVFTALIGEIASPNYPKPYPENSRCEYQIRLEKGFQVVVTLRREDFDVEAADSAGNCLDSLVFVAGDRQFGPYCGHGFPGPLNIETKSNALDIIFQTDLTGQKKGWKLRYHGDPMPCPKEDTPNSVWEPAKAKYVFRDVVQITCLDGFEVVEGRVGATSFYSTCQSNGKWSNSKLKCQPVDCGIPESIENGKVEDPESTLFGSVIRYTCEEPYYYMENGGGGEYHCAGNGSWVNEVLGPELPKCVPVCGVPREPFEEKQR
Kind of experiment: Anti-Cl esterase activity, Cls (ATEE hydrolysis). It counts as biochemical. The conditions noted are these: hydrolysis of ATEE; read-out: Anti-Cl activity, Cls (50% inhibition). On the procedure: The anti-Cl esterase (Clr, Cls) activity was determined according to the method of Okamura et al. [K. Okamura, M. Muramatsu and B. Fujii, Biochem. Biophys. […] The figures in Table 2 have the following meanings:
Cls: Molar concentration of the test compound which inhibits 50% of the ability of Cls to hydrolyse ATEE (acetyltyrosin ethyl ester).

The target in experiment [2] is T2, Trypsin (Bos taurus, UniProt P00760).
T2 sequence (P00760 24-246): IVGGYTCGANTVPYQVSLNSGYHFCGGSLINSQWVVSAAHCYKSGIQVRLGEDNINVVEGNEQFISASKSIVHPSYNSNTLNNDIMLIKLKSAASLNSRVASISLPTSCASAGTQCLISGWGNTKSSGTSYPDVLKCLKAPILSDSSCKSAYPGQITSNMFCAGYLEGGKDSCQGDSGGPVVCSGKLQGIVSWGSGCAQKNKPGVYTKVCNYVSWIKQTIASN
Description: Anti-trypsin activity (inhibition of TAME hydrolysis). It counts as biochemical. The conditions noted are these: read-out: ID50, trypsin. In short, it runs like this: (§1)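 Inhibition of enzymatic TAME (tosylarginine methyl ester) hydrolysis, per Muramatsu et al. Values are ID50, the molar concentration of compound inhibiting 50% of each enzyme's TAME-hydrolysing activity.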

The target of experiment [3] is Plasmin (Homo sapiens, UniProt P00747). Kind of experiment: Anti-plasmin activity (inhibition of TAME hydrolysis). The format is biochemical. The conditions noted are these: read-out: ID50, plasmin. In short, it runs like this:
as §1

Experiment [4] has as its system complement. Kind of experiment: Inhibition of complement mediated hemolysis. It counts as cell-based.
Experiment [5] addresses T3, Clr (Homo sapiens, UniProt P00736).
T3 sequence (P00736 464-705 limits assumed): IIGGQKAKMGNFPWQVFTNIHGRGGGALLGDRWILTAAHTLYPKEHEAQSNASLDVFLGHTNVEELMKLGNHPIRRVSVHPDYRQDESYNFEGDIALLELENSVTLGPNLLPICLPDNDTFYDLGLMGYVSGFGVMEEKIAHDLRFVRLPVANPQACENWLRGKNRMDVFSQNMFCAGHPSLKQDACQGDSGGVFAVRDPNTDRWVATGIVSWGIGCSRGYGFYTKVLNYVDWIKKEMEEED
T3 sequence (P00736 18-463 limits assumed): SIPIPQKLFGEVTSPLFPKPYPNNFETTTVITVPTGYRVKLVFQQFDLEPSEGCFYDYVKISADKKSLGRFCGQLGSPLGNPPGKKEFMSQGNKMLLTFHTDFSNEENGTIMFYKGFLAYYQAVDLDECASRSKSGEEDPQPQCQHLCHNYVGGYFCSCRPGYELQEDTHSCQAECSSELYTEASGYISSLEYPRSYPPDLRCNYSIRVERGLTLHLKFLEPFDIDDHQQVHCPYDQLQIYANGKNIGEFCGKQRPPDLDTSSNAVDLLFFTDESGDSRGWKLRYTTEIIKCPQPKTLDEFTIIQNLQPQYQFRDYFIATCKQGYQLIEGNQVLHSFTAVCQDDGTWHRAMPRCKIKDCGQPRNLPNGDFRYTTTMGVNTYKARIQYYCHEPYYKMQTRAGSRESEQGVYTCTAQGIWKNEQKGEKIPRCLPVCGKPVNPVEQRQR
Kind of experiment: Anti-Cl esterase activity, Clr (AAME hydrolysis). The conditions noted are these: hydrolysis of AAME; read-out: Anti-Cl activity, Clr (ID50). The format is biochemical. The method, then:
The anti-Cl esterase ([…]) activity was determined according to the method of Okamura et al. [K. Okamura, M. Muramatsu and B. Fujii, Biochem. Biophys.

Experiment [6] concerns the target Thrombin (Homo sapiens, UniProt P00734). Kind of experiment: biochemical. The conditions noted are these: TAME hydrolysis; read-out: ID50, thrombin.
The subject of experiment [7] is Kallikrein. Kind of experiment: Anti-kallikrein activity (inhibition of TAME hydrolysis). It counts as biochemical. The conditions noted are these: read-out: ID50, kallikrein. The method in brief: as §1

Plasmin, sequence (P00747 581-810 limits assumed, species assumed): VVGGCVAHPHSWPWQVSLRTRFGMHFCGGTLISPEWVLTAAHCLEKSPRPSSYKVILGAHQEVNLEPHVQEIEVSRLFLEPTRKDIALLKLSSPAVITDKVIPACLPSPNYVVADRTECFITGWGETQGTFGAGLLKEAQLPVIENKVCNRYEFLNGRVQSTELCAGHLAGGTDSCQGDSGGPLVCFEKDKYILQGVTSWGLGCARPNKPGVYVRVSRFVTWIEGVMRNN
Plasmin, sequence (P00747 97-580 limits assumed, species assumed): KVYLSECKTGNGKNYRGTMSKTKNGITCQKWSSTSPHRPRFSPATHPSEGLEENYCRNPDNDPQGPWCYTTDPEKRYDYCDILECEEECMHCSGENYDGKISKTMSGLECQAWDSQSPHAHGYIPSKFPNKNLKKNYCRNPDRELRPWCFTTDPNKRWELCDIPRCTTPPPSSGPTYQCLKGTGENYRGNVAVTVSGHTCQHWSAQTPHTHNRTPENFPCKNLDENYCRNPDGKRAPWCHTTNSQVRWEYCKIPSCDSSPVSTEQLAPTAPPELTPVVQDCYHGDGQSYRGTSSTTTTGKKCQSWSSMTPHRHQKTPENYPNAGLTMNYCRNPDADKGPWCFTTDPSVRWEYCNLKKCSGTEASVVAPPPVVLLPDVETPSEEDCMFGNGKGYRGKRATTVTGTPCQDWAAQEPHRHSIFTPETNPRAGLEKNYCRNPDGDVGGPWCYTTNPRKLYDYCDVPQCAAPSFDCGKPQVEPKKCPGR

With `CC(C)(C)c1ccc(C(=O)Oc2ccc(C(=N)N)cc2C(=O)c2ccccc2)cc1` [Compound 39], the IC50 in experiment [1] is 200 nM; in experiment [2] it was 10 nM; in experiment [3] it was 200 nM; in experiment [5], 400 nM; in experiment [6], 200 nM; in experiment [7] it was 400 nM. Besides, the “Inhibition of complement mediated hemolysis (%)” value (from here on “Inhibition … (%)”) is on record as 0% in experiment [4] (compound at 1 × 10^-4), 95.4% in experiment [4] (compound at 1 × 10^-5), 96.8% in experiment [4] (compound at 1 × 10^-6) and 52.1% in experiment [4] (compound at 1 × 10^-7).
For the compound `COc1ccc(C(=O)Oc2ccc(C(=N)N)cc2C(=O)c2ccccc2)cc1` [Compound 42], the IC50 in experiment [1] came to 40 nM; in experiment [2], 70 nM; in experiment [3], 300 nM; in experiment [5], 1000 nM; in experiment [6], 70 nM; in experiment [7] it was 300 nM. In addition, the “Inhibition … (%)” value in experiment [4] (compound at 1 × 10^-4) stood at 100%; in experiment [4] (compound at 1 × 10^-5), 99.1%; in experiment [4] (compound at 1 × 10^-6), 70.0%; in experiment [4] (compound at 1 × 10^-7), 7.6%.
For the compound `CCCCOc1ccc(C(=O)Oc2ccc(C(=N)N)cc2[N+](=O)[O-])cc1` [Compound 44], the IC50 in experiment [1] stood at 600 nM; in experiment [2] it was 20 nM; in experiment [3] it was 3000 nM; in experiment [5], 4000 nM; in experiment [6], 2000 nM; in experiment [7] it was 300 nM. Besides, the “Inhibition … (%)” value was determined as 99.1% in experiment [4] (compound at 1 × 10^-4), 94.1% in experiment [4] (compound at 1 × 10^-5), 29.0% in experiment [4] (compound at 1 × 10^-6) and 29.2% in experiment [4] (compound at 1 × 10^-7).
`N=C(N)c1ccc(OC(=O)c2ccc(OCc3ccccc3)cc2)c(C(=O)c2ccccc2)c1` [Compound 45, 4-amidino-2-benzoylphenyl 4-benzyloxybenzoate]: the IC50 in experiment [1] was found to be 400 nM; in experiment [2] it was 20 nM; in experiment [3] it was 300 nM; in experiment [5] it was 900 nM; in experiment [6] it was 200 nM; in experiment [7], 400 nM. For the same compound, the “Inhibition … (%)” value in experiment [4] (compound at 1 × 10^-4) came to 0%; in experiment [4] (compound at 1 × 10^-5), 90.2%; in experiment [4] (compound at 1 × 10^-6) it was 6.0%; in experiment [4] (compound at 1 × 10^-7), 0%.
On to `N=C(N)c1ccc(OC(=O)c2ccc(O)cc2)c(C(=O)c2ccccc2)c1` [Compound 46, 4-amidino-2-benzoylphenyl 4-hydroxybenzoate], for which the IC50 in experiment [1] turned out to be 90 nM; in experiment [2], 50 nM; in experiment [3] it was 600 nM; in experiment [5], 2000 nM; in experiment [6] it was 40 nM; in experiment [7], 300 nM. In addition, the “Inhibition … (%)” value in experiment [4] (compound at 1 × 10^-4) is 100%; in experiment [4] (compound at 1 × 10^-5), 98.0%; in experiment [4] (compound at 1 × 10^-6), 67.6%; in experiment [4] (compound at 1 × 10^-7) it was 5.0%.
For the compound `N=C(N)c1cc(Br)c(OC(=O)c2ccc3c(c2)OCO3)c(Br)c1` [Compound 47, 4-amidino-2,6-dibromophenyl 3,4-methylenedioxybenzoate], the IC50 in experiment [1] is 30 nM; in experiment [2], above 10000 nM; in experiment [3], above 10000 nM; in experiment [5], above 10000 nM; in experiment [6], above 10000 nM; in experiment [7], above 10000 nM. Besides, the “Inhibition … (%)” value is reported as 33.5% in experiment [4] (compound at 1 × 10^-4), 10.4% in experiment [4] (compound at 1 × 10^-5), 13.4% in experiment [4] (compound at 1 × 10^-6) and 0% in experiment [4] (compound at 1 × 10^-7).
For `N=C(N)c1ccc(OC(=O)C=Cc2ccc3c(c2)OCO3)c([N+](=O)[O-])c1` [Compound 48], the IC50 in experiment [1] was 3000 nM; in experiment [2] it was 2000 nM; in experiment [3], 200 nM; in experiment [5] it was above 10000 nM; in experiment [6], 400 nM; in experiment [7], 8000 nM. For the same compound, the “Inhibition … (%)” value in experiment [4] (compound at 1 × 10^-4) came to 94.0%; in experiment [4] (compound at 1 × 10^-5), 94.8%; in experiment [4] (compound at 1 × 10^-6) it was 75.3%; in experiment [4] (compound at 1 × 10^-7) it was 23.2%.
For the compound `COC(=O)c1ccc(C(=O)Oc2ccc(C(=N)N)cc2C(=O)c2ccccc2)cc1` [Compound 50], the IC50 in experiment [1] was above 10000 nM; in experiment [2], 4000 nM; in experiment [3], 500 nM; in experiment [5], 9000 nM; in experiment [6] it was 200 nM; in experiment [7], above 10000 nM. For the same compound, the “Inhibition … (%)” value in experiment [4] (compound at 1 × 10^-4) is listed as 98.8%; in experiment [4] (compound at 1 × 10^-5), 75.4%; in experiment [4] (compound at 1 × 10^-6), 6.9%; in experiment [4] (compound at 1 × 10^-7), 0%.
For the compound `COC(=O)c1cc(C(=N)N)ccc1OC(=O)c1ccc(C=O)cc1` [Compound 51], the IC50 in experiment [1] is 3000 nM; in experiment [2], 200 nM; in experiment [3], 300 nM; in experiment [5], above 10000 nM; in experiment [6], 900 nM; in experiment [7] it was above 10000 nM. The “Inhibition … (%)” value in experiment [4] (compound at 1 × 10^-4) stood at 99.1%; in experiment [4] (compound at 1 × 10^-5), 90.9%; in experiment [4] (compound at 1 × 10^-6) it was 15.0%; in experiment [4] (compound at 1 × 10^-7), 0%.
Regarding `N=C(N)c1ccc(OC(=O)c2ccc(C=O)cc2)c(C(=O)c2ccccc2)c1` [Compound 52], the IC50 is 3000 nM in experiment [1]; 3000 nM in experiment [2]; 200 nM in experiment [3]; 5000 nM in experiment [5]; 90 nM in experiment [6]; above 10000 nM in experiment [7]. Also, the “Inhibition … (%)” value in experiment [4] (compound at 1 × 10^-4) is 100%; in experiment [4] (compound at 1 × 10^-5) it was 98.8%; in experiment [4] (compound at 1 × 10^-6), 75.4%; in experiment [4] (compound at 1 × 10^-7), 12.8%.
On to `CC(=O)Oc1ccc(C=CC(=O)Oc2ccc(C(=N)N)cc2C(=O)c2ccccc2)cc1` [Compound 54, 4-amidino-2-benzoylphenyl 4-acetyloxycinnamate], for which the IC50 in experiment [1] stood at 200 nM; in experiment [2], 20 nM; in experiment [3], 300 nM; in experiment [5], 2000 nM; in experiment [6] it was 90 nM; in experiment [7], 400 nM. The “Inhibition … (%)” value in experiment [4] (compound at 1 × 10^-4) is reported as 99.1%; in experiment [4] (compound at 1 × 10^-5), 98.6%; in experiment [4] (compound at 1 × 10^-6) it was 79.4%; in experiment [4] (compound at 1 × 10^-7) it was 41.1%.

The record behind these values is patent US4570006A, “Amidine compound, process for producing same and anti-complement agent comprising same” (Torii & Co. Ltd., priority 1981, dated 1986).
